biological target: T1, DPP-IV (Homo sapiens, UniProt P27487); assay: DPP-IV assay with extract of Caco-2 cells as DPP IV source, AFC substrate, fluorescence; assay type: biochemical; settings: extract of human colon carcinoma cell line Caco-2; substrate 100 μM; 60 minutes at ambient temperature; read-out: DPP IV inhibition IC50
T1 construct: an extract of the human colon carcinoma cell line Caco-2 is used as the DPP IV source; endogenous in cells; host or cells: Caco-2 (human colon carcinoma), differentiated to induce DPP-IV expression; Nonidet-P40 solubilised extract
Protocol: The differentiation of the cells in order to induce the DPP-IV expression was carried out in accordance with the description by Reiher et al. in an article entitled “Increased expression of intestinal cell line Caco-2”, which appeared in Proc. Natl. Acad. Sci. Vol. 90, pp. 5757-5761 (1993). The cell extract was obtained from cells solubilised in a buffer (10 mM Tris HCl, 0.15 M NaCl, 0.04 t.i.u. aprotinin, 0.5% Nonidet-P40, pH 8.0) by centrifugation at 35,000 g for 30 minutes at 4° C. (to remove cell debris).
The DPP-IV assay was carried out as follows:
50 μl of substrate solution (AFC; AFC is amido-4-trifluoromethylcoumarin), final concentration 100 μM, were placed in black microtitre plates. 20 μl of assay buffer (final concentrations 50 mM Tris HCl pH 7.8, 50 mM NaCl, 1% DMSO) was pipetted in. The reaction was started by the addition of 30 μl of solubilised Caco-2 protein (final concentration 0.14 μg of protein per well). The test substances under investigation were typically added prediluted to 20 μl, while the volume of assay buffer was then reduced accordingly. The reaction was carried out at ambient temperature, the incubation period was 60 minutes. Then the fluorescence was measured in a Victor 1420 Multilabel Counter, with the excitation wavelength at 405 nm and the emission wavelength at 535 nm. Dummy values (corresponding to 0% activity) were obtained in mixtures with no Caco-2 protein (volume replaced by assay buffer), control values (corresponding to 100% activity) were obtained in mixtures without any added substance. The potency of the test substances in question, expressed as IC50 values, were calculated from dosage/activity curves consisting of 11 measured points in each case.

T1 sequence (P27487 whole entry): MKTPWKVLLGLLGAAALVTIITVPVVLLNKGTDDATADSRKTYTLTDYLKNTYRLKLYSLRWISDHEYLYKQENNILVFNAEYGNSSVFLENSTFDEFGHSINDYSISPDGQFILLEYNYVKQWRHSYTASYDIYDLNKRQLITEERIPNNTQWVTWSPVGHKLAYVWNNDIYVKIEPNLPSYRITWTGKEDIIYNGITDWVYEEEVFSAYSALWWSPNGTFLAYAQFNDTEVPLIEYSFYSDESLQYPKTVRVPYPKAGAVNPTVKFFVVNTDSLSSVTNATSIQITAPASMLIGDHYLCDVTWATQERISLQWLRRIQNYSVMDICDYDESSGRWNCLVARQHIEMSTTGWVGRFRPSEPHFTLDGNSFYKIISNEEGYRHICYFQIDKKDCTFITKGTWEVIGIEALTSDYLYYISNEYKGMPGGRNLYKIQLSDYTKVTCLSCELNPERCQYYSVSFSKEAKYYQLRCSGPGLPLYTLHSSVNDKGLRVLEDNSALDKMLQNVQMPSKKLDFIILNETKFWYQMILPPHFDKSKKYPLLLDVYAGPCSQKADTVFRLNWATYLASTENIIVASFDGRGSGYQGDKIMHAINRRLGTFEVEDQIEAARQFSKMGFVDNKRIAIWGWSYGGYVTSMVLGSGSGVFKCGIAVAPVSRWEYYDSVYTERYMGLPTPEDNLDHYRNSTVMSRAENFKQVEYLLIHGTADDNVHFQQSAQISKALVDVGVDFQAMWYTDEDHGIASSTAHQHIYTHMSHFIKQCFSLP

Question: CC#CCn1c(N(C)C[C@H](C)N)nc2c1c(=O)n(Cc1ncc3ccccc3c1C#N)c(=O)n2C [2(12), 1-[(4-cyano-isoquinolin-3-yl)methyl]-3-methyl-7-(2-butyn-1-yl)-8-[(S)-(2-amino-propyl)-methylamino]-xanthine] was tested. Which IC50 did it give?
Answer: Its IC50 is 2 nM.

Question: Which IC50 does the source give for CC#CCn1c(N(C)C[C@H](C)N)nc2c1c(=O)n(Cc1nc(C)c3ccccc3n1)c(=O)n2C [Example 2(4), 1-[(4-methyl-quinazolin-2-yl)methyl]-3-methyl-7-(2-butyn-1-yl)-8-[(S)-(2-amino-propyl)-methylamino]-xanthine] here?
Answer: The IC50 was 2 nM.

Question: CC#CCn1c(N(C)C[C@H](C)N)nc2c1c(=O)n(Cc1ncccc1C#N)c(=O)n2C [2(11), 1-[(3-cyano-pyridin-2-yl)methyl]-3-methyl-7-(2-butyn-1-yl)-8-[(S)-(2-amino-propyl)-methylamino]-xanthine] was tested. Which IC50 did it give?
Answer: Its IC50 is 3 nM.

Question: Which IC50 does the source give for CC#CCn1c(N(C)C[C@H](C)N)nc2c1c(=O)n(Cc1ccc3nccnc3c1)c(=O)n2C [2(10), 1-[(quinoxalin-6-yl)methyl]-3-methyl-7-(2-butyn-1-yl)-8-[(S)-(2-amino-propyl)-methylamino]-xanthine] here?
Answer: The IC50 was 3 nM.

Question: For CC#CCn1c(N(C)CCN)nc2c1c(=O)n(Cc1nc(C)c3ccccc3n1)c(=O)n2C [1(1), 1-[(4-methyl-quinazolin-2-yl)methyl]-3-methyl-7-(2-butyn-1-yl)-8-[(2-amino-ethyl)-methylamino]-xanthine], which IC50 is on record?
Answer: Its IC50 is 2 nM.

Question: For CC#CCn1c(N(C)CC(C)(C)N)nc2c1c(=O)n(Cc1nc(C)c3ccccc3n1)c(=O)n2C [2(1), 1-[(4-methyl-quinazolin-2-yl)methyl]-3-methyl-7-(2-butyn-1-yl)-8-[(2-amino-2-methyl-propyl)-methylamino]-xanthine], which IC50 is on record?
Answer: Its IC50 is 3 nM.

system: rats; assay: Tolerability in rats after oral administration; assay type: in vivo; settings: oral administration of 10 mg/kg

Question: CC#CCn1c(N(C)C[C@H](C)N)nc2c1c(=O)n(Cc1nc(C)c3ccccc3n1)c(=O)n2C [Example 2(4), 1-[(4-methyl-quinazolin-2-yl)methyl]-3-methyl-7-(2-butyn-1-yl)-8-[(S)-(2-amino-propyl)-methylamino]-xanthine] was tested. Which toxic side effects did it give?
Answer: Its toxic side effects is “no toxic side effects could be detected”.

From patent publication US7495002B2, “3-methyl-7-butinyl-xanthines, the preparation thereof and their use as pharmaceutical compositions” (Boehringer Ingelheim International GmbH, priority 2004, dated 2009)
